Assay results as given in ChEMBL document CHEMBL1146625, “The kinetics of binding to p38MAP kinase by analogues of BIRB 796” (Bioorg Med Chem Lett, 2003).

What follows are compounds tested against T1, Mitogen-activated protein kinase 14 (Homo sapiens, UniProt Q16539) (assay: Binding affinity for Mitogen-activated protein kinase p38 alpha).
T1 sequence (Q16539 whole entry): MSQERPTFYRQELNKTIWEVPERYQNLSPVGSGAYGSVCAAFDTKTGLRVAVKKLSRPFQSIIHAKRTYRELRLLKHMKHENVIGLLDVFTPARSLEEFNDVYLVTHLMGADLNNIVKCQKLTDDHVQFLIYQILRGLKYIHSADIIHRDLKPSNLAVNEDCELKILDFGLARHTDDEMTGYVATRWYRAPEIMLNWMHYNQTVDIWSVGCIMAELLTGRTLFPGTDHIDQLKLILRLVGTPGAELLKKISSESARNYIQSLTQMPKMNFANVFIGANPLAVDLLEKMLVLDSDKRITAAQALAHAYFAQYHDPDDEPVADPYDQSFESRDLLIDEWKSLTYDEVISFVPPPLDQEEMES

Question: Which Kd does the source give for COc1cc(NC(=O)Nc2cc(C(C)(C)C)nn2-c2ccc(C)cc2)c2ccccc2c1OCCN1CCOCC1 here?
Answer: 14 nM

Question: Which Kd does the source give for Cc1ccc(-n2nc(C(C)(C)C)cc2NC(=O)Nc2ccc(OCCN3CCOCC3)c3ccccc23)cc1C(=O)O here?
Answer: 2.5 nM

Question: For Cc1ccc(-n2nc(C(C)(C)C)cc2NC(=O)Nc2ccc(OCCN3CCOCC3)c3ccccc23)cn1, which Kd is on record?
Answer: 1.1 nM

Question: How did the Kd turn out when Cc1ccc(-n2nc(C(C)(C)C)cc2NC(=O)Nc2ccc(CCCN3CCOCC3)c3ccccc23)cc1 was run?
Answer: 1.2 nM

Question: For CC(C)c1cc(NC(=O)Nc2ccc(OCCN3CCOCC3)c3ccccc23)n(-c2ccccc2)n1, which Kd is on record?
Answer: 5.9 nM

Question: How did the Kd turn out when CN(C)Cc1cccc(-n2nc(C(C)(C)C)cc2NC(=O)Nc2ccc(OCCN3CCOCC3)c3ccccc23)c1 was run?
Answer: 16 nM

Question: With Cc1ccc(-n2nc(C(C)(C)C)cc2NC(=O)Nc2cccc3ccccc23)cc1 as the compound, how does the Kd read?
Answer: 1.1 nM

Question: Which Kd does the source give for O=C(Nc1ccc(OCCN2CCOCC2)c2ccccc12)Nc1ccnn1-c1ccccc1 here?
Answer: 2000 nM

Question: Which Kd does the source give for Cc1ccc(-n2nc(C(C)(C)C)cc2NC(=O)Nc2ccccc2)cc1 here?
Answer: 22 nM

Question: How did the Kd turn out when Cc1ccc(-n2nc(C(C)(C)CO)cc2NC(=O)Nc2ccc(OCCN3CCOCC3)c3ccccc23)cc1 was run?
Answer: 16 nM

Question: With Cn1nc(C(C)(C)C)cc1NC(=O)Nc1ccc(OCCN2CCOCC2)c2ccccc12 as the compound, how does the Kd read?
Answer: 23 nM

Question: How did the Kd turn out when COc1cc(NC(=O)Nc2cc(C(C)(C)C)nn2-c2ccc(C)cc2)c2ccccc2c1 was run?
Answer: 9.4 nM

Question: How did the Kd turn out when CC(C)(C)c1cc(NC(=O)Nc2ccc(OCCN3CCOCC3)c3ccccc23)n(-c2ccccc2)n1 was run?
Answer: 0.097 nM

Question: With Cc1ccc(-n2nc(C(C)(C)C)cc2NC(=O)Nc2ccc(OCCN3CCOCC3)c3ccccc23)cc1CN(C)C as the compound, how does the Kd read?
Answer: 4.8 nM

These compounds were tested against T1, Mitogen-activated protein kinase 14.
Description: Rate of dissociation from Mitogen-activated protein kinase p38 alpha

Question: For Cc1ccc(-n2nc(C(C)(C)C)cc2NC(=O)Nc2ccc(OCCN3CCOCC3)c3ccccc23)cc1C(=O)O, which k off is on record?
Answer: 6.2e-05 s⁻¹

Question: Cc1ccc(-n2nc(C(C)(C)C)cc2NC(=O)Nc2ccc(OCCN3CCOCC3)cc2)cc1 was tested. Which k off did it give?
Answer: 0.0039 s⁻¹

Biological target: T1, Mitogen-activated protein kinase 14
Remark: another data set of the same source
Description: Rate of association to Mitogen-activated protein kinase p38 alpha

Question: With Cc1ccc(-n2nc(C(C)(C)C)cc2NC(=O)Nc2ccc(OCCN3CCOCC3)c3ccccc23)cc1C(=O)O as the compound, how does the k on read?
Answer: 25200 M⁻¹ s⁻¹

Question: For Cc1ccc(-n2nc(C(C)(C)C)cc2NC(=O)Nc2ccc(OCCN3CCOCC3)cc2)cc1, which k on is on record?
Answer: 13000 M⁻¹ s⁻¹
